Laboratory results published in article PMC8779255, “Determining the Anticancer Activity of Sphingosine Kinase Inhibitors Containing Heteroatoms in Their Tail Structure” (Pharmaceutics, 2022).

Experiments:
[1] = system: HCT116 cells; test: Clonogenic (colony formation) assay; assay type: cell-based, human; settings: HCT116, 5, 10 and 20 μM
Protocol: Cell proliferation was assayed by in vitro clonogenic assay. To perform the clonogenic assay, HT29 and HCT116 cells (1000 cells/well) were grown in 6-well plates for 24 h. Cells were treated with compound 10 and FTY720 in different concentrations for 12 h and changed fresh medium. Colonies were allowed to grow for two weeks by changing to a fresh medium every 3 days. Colonies were stained with 0.1% crystal violet prepared in 25% […] for 30 min and washed with running water and photographed with Canon Rebel T6i (Tokyo, Kanto, Japan). Colonies were counted using Image J software version 1.53i, National Institutes of Health, Bethesda, MD, USA). Plating efficiency (PE) and surviving fraction (SF) was calculated using the following formula. (1) [Plating efficiency (PE)]=Number of colony count in control/Number of cell seeded [Surviving Fraction]=Number of colony count /Number of cell seeded […]

[2] = system: HCT116 cells; test: Mitochondrial outer membrane potential (MOMP) by JC-10 staining; assay type: cell-based, human; settings: HCT116, 10 and 20 µM, 24 h, vs nontreated control
Protocol: (§1) To access the mechanism of cell death, mitochondrial outer membrane potential (MOMP) was measured using JC-10 cationic dye. HT29 and HCT116 cells (2.5 × 10^5 cells/well) were seeded in 12-well plates and treated with a test compound for 24 h, collected in 1.5 mL microtubes using trypsin-EDTA, washed with 1× cold PBS, and stained with JC-10 dye prepared in HBSS solution (0.14 M NaCl, 0.005 M KCl, 0.001 M CaCl2, 0.005 M MgSO4. 7H2O, 0.0004 M […], 0.0003 M Na2HPO4-2H2O, 0.0004 M KH2PO4, 0.006 M D-glucose, 0.004 M NaHCO3, 0.002 M HEPES, and 0.02% Pluronic® F-127) for 30 min. Samples were analyzed using MACSQuanta Analyzer 10. Cells with green and red fluorescence were plotted in a dot plot; the ratio of red to green fluorescence was calculated using MACSQuantify^TM version 2.8 software and presented as MOMP of the cells. The experiment was repeated three times (n = 6).

[3] = system: HT29 cells; test: as above; assay type: cell-based, human; settings: HT29, 10 and 20 µM, 24 h, vs nontreated control
Protocol: as §1

[4] = system: PARP, caspase-3, Bcl-2, BAX in HCT116 cells; test: Western blotting of apoptotic pathway-related proteins; assay type: cell-based, human
Protocol: (§2) The cell lysate was prepared after successive treatment using mammalian protein extraction buffer (Organic buffer + 10 mM NaCl + detergent pH 7.5) mixed with 1% protease/phosphatase inhibitor cocktail; protein was quantified with BCA assay, boiled at 95 °C for 10 min by adding sample loading buffer, separated using SDS-PAGE, and transferred into methanol-activated PVDF membrane. Primary antibodies were probed overnight in PVDF membrane at 4 °C and […] with subsequent HRP anti-mouse and anti-rabbit secondary antibodies at room temperature. Then, membranes were washed with TBST buffer, and images were detected by Amersham Imager 680 (GE Healthcare; Leiden, WZ, The Netherlands) using ECL solution. Band intensities were analyzed and quantified using Image J software (version 1.53i).

[5] = molecular target: T1, PP2A in HCT116 cells (Homo sapiens, UniProt P67775); test: PP2A activity assay (immunoprecipitation kit); assay type: cell-based; settings: HCT116, 24 h, 20 µM of compounds 10, 11 and 13; vs nontreated control cells
T1 construct: endogenous in cells; host or cells: HCT116
Protocol: The activity of PP2A was measured by using the PP2A kit according to the manufacturer’s instruction. The cell lysate was incubated with anti PP2A, C subunit antibody, and protein A agarose slurry for 2 h at 4 °C. The phosphopeptide solution (60 µL) was mixed and incubated at 30 °C for 10 min in a shaker. After a brief centrifuge, a 25 µL sample was liquated in ½ volume microplate and 100 µL malachite green phosphate detection working solution was added. After color development, absorbance was taken at 650 nm in a Multiskan GO microplate reader. A phosphate standard curve was constructed using phosphate standard, and results were calculated using this standard curve. This experiment was repeated three times (n = 6).

[6] = system: AKT and ERK phosphorylation in HCT116 cells; test: Western blotting of pAKT and pERK; assay type: cell-based, human; settings: HCT116, 20 µM
Protocol: as §2

[7] = molecular target: T2, CYP3A4 (Homo sapiens, UniProt P08684); test: Inhibition of CYP enzymes activity, human liver microsomes; assay type: in vitro ADME; settings: human liver microsomes 0.25 mg/mL, 10 μM, midazolam substrate
T2 construct: Human liver microsomes (0.25 mg/mL); from tissue; host or cells: human liver microsomes
Protocol: (§3) By simultaneously analyzing metabolites, the ability of the six compounds to inhibit drug metabolism enzymes was evaluated.
(§4) Metabolites of each CYP coenzyme indicator drug generated through the above reaction were analyzed using the Shimadzu Nexera XR system and TSQ vantage (Thermo). The HPLC column was a Kinetex C18 column (2.1 × 100 mm^2, 2.6 μm particle size; Phenomenex, Torrance, CA, USA), and the mobile phase was distilled water (A) containing 0.1% formic acid and acetonitrile (B) containing 0.1% formic acid. […] The generated metabolites were quantified using MRM (Multiple Reaction Monitoring) quantification modes, and data were analyzed using Xcalibur (version 1.6.1).

[8] = In vitro metabolic stability in liver microsomes; assay type: in vitro ADME, mouse
[9] = In vitro metabolic stability in liver microsomes
Protocol: Microsome incubation was measured in triplicate in a 1.5 mL Eppendorf tube with 0.1 M potassium phosphate buffer (pH 7.4). […] It has a final volume of 100 mL in the presence of an NADPH regeneration system. In the final incubation mixture, 0.5 mg/mL HLM, 0.1 M potassium phosphate buffer (pH 7.4), and NADPH regeneration system (1 mM NADPH, 10 mM MgCl2) were included. In the pre-incubation mixture, HLM was added, and the mixture was run in a shaking incubator at approximately 350 rpm and 37 °C for 5 min under a Thermomixer (Eppendorf, Hamburg, Germany). Reactions were initiated by the addition of 1 mM NADPH and then quenched by the addition of 40 μL of ice-cold acetonitrile containing 10 μM chlorpropamide (CPP) as an internal standard at 0 and 30 min. After quenching, centrifugation of the incubation mixture was performed at 15,000× g for 5 min at 4 °C. An aliquot of 2 µL of the supernatant was injected into the LC-MS/MS system. The LC-MS/MS system was Xcalibur version 1.1.1 (Thermo Fisher Scientific Inc., Waltham, MA, USA).

[10] = molecular target: T3, CYP1A2 (Homo sapiens, UniProt P05177); test: Inhibition of CYP enzymes activity, human liver microsomes; settings: human liver microsomes 0.25 mg/mL, 10 μM, phenacetin substrate
T3 sequence (P05177 1-516): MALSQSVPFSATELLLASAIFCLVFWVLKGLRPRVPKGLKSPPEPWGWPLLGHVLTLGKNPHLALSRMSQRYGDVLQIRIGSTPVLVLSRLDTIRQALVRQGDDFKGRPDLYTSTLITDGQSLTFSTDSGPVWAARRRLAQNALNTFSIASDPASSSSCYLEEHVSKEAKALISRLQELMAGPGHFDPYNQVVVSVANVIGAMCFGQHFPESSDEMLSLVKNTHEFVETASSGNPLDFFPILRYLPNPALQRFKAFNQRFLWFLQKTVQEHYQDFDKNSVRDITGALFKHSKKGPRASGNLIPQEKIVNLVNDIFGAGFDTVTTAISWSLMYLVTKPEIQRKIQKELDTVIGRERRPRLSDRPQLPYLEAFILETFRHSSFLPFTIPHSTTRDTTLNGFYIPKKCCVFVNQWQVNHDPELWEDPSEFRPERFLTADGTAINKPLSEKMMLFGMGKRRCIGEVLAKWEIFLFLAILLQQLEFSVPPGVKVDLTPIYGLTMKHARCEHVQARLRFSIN
Protocol: (§5) Afterward, to terminate the reaction, an acetonitrile solution containing an internal standard (terfenadine) was added, centrifuged for 5 min (14,000 rpm, 4 °C), and the supernatant was injected into the LC-MS/MS system. By simultaneously analyzing metabolites, the ability of the six compounds to inhibit drug metabolism enzymes was evaluated.
as §4

[11] = molecular target: CYP2C9 (Homo sapiens, UniProt P11712); test: as above; settings: human liver microsomes 0.25 mg/mL, 10 μM, diclofenac substrate
Protocol: as §3, §4

[12] = molecular target: CYP2D6 (Homo sapiens, UniProt P10635); test: as above; settings: human liver microsomes 0.25 mg/mL, 10 μM, dextromethorphan substrate
Chain of CYP2D6 (P10635 whole entry): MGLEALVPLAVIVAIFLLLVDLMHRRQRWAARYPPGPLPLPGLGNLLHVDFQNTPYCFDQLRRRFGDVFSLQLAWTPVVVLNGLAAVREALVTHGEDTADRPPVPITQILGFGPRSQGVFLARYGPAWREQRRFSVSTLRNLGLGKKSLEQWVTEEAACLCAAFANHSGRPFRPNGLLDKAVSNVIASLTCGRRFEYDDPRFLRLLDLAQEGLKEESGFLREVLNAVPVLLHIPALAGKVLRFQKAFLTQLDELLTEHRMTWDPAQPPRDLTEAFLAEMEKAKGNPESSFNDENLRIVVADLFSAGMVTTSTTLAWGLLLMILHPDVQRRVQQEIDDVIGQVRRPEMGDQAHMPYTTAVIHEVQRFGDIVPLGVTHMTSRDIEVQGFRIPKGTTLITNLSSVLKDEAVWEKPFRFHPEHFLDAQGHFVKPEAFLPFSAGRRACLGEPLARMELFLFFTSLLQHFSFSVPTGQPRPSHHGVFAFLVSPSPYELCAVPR
Protocol: as §5, §4

T2 sequence (P08684 whole entry): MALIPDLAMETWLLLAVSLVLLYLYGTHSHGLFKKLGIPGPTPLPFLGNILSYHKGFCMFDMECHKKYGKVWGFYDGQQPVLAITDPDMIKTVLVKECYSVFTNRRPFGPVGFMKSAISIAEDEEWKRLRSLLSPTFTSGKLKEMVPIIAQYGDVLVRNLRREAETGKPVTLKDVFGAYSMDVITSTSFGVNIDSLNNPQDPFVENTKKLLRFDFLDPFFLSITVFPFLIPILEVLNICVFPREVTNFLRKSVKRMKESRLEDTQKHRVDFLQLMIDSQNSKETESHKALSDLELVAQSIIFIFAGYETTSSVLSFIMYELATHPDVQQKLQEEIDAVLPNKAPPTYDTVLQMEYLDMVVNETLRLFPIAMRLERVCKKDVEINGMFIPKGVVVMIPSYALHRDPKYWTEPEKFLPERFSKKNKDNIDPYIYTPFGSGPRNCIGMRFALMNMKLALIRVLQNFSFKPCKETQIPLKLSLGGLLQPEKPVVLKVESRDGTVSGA
T1 sequence (P67775 whole entry): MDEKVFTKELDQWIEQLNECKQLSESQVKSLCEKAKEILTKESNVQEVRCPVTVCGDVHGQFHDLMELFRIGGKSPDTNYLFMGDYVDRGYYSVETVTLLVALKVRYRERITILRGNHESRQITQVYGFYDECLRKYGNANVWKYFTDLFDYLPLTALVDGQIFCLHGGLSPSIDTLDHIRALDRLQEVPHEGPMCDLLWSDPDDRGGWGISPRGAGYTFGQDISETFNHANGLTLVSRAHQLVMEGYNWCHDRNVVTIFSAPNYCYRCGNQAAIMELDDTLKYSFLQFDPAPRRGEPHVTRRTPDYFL
Chain of CYP2C9 (P11712 whole entry): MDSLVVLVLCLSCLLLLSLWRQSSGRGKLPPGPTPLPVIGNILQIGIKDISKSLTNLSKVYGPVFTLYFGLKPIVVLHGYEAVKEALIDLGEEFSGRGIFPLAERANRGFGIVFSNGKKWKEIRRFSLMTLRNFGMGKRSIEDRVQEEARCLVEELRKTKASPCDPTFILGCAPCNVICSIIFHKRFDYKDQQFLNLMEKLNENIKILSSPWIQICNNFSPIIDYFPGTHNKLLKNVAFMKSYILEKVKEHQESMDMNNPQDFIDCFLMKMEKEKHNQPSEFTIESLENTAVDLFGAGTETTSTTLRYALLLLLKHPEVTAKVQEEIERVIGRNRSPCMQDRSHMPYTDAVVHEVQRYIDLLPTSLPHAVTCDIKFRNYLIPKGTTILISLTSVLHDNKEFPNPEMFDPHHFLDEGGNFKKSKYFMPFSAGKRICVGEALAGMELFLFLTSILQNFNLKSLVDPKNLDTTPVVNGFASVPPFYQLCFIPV

Question: For CCCCCCCOc1ccc(CCN2CCN(CCO)CC2)cc1 [Compound 10, 2-(4-(4-(Heptyloxy)phenethyl)piperazin-1-yl)ethanol], which colony formation capacity [1] is on record?
Answer: effectively inhibits the colony formation capacity

Question: What about the “JC-10 dye red to green fluorescence ratio (MOMP)” value [2] of the same compound?
Answer: significantly reduced

Question: What about the “JC-10 dye red to green fluorescence ratio (MOMP)” value [3] of the same compound?
Answer: significantly reduced

Question: What about the “expression of antiapoptotic Bcl-2 protein” value ([4]; HCT116, 10 and 20 µM) of the same compound?
Answer: decreased the expression of antiapoptotic Bcl-2 protein

Question: What about the “expression of proapoptotic protein BAX” value ([4]; HCT116, 10 and 20 µM) of the same compound?
Answer: increased the expression of proapoptotic protein BAX

Question: What about the “cleavage of caspase-3” value ([4]; HCT116, 10 and 20 µM, vs nontreated control) of the same compound?
Answer: effectively increased the cleavage

Question: And the “cleaved PARP level” value ([4]; HCT116, vs nontreated groups)?
Answer: increased cleaved PARP level

Question: What about the PP2A activity increase [5] of the same compound?
Answer: 1.73 fold

Question: And the “phosphorylation of AKT and ERK” value [6]?
Answer: significantly reduced phosphorylation of AKT and ERK

Question: What about the “CYP3A4 activity (% of control activity)” value [7] of the same compound?
Answer: >100%

Question: What about the “liver microsomal stability, Mouse (%)” value ([8]; % remaining after 30 min, NADPH) of the same compound?
Answer: 44.7%

Question: What about the “liver microsomal stability (in words)” value ([8]; mouse) of the same compound?
Answer: unstable

Question: And the “liver microsomal stability, Human (%)” value ([9]; % remaining after 30 min, 0.5 mg/mL microsomes, NADPH)?
Answer: 70.3%

Question: What about the “liver microsomal stability (in words)” value ([9]; human) of the same compound?
Answer: stable

Question: What about the “CYP1A2 activity (% of control activity)” value [10] of the same compound?
Answer: >100%

Question: What about the “CYP2C9 activity (% of control activity)” value [11] of the same compound?
Answer: >100%

Question: And the “CYP2D6 activity (% of control activity)” value [12]?
Answer: 87.4%
